According to patent US11939331B2, “Tricyclic heterocycles as FGFR inhibitors” (Incyte Corporation, priority 2021, dated 2024):

Molecular target: wild-type un-phosphorylated FGFR3 protein (Homo sapiens, UniProt P22607)
Test: FGFR Enzymatic Assay (FRET peptide phosphorylation)
Method: The inhibitor potency of the exemplified compounds was determined in an enzyme discontinuous assay that measures peptide phosphorylation using FRET measurements to detect product formation. Inhibitors were serially diluted in DMSO and a volume of 0.2 μL was transferred to the wells of a 384-well plate. A 5 μL/well volume of enzyme isoforms of FGFR (-1, -2, -3 wild-type and mutant isoforms, -4) including phosphorylated and un-phosphorylated proteins diluted in assay buffer (50 mM HEPES, 10 mM MgCl2, 1 mM EGTA, 0.01% Tween-20, 5 mM DTT, pH 7.5) was added to the plate and pre-incubated with inhibitor for 5 to 15 minutes at ambient temperature. Appropriate controls (enzyme blank and enzyme with no inhibitor) were included on the plate. The reaction was initiated by the addition of a 5 μL/well volume containing both biotinylated [sequence] peptide substrate (SEQ ID NO: 1) and ATP in assay buffer. The 10 μL/well reaction concentration of the peptide substrate was 500 nM whereas the ATP concentration was maintained near or below the ATP Km. The ATP Km values were pre-determined in a separate series of experiments. The reaction plate was incubated at 25° C. for 1 hr and the reactions were ended with the addition of 5 μL/well of quench solution (50 mM Tris, 150 mM NaCl, 0.5 mg/mL BSA, pH 7.8; 45 mM EDTA, 600 nM staurosporin, with Perkin Elmer Lance Reagents at 3.75 nM Eu-antibody PY20 and 180 nM APC-Streptavidin). The plate was allowed to equilibrate for ˜10 minutes at ambient temperature before scanning on a PheraStar plate reader (BMG Labtech) instrument.
Either GraphPad prism or XLfit was used to analyze the data. The IC50 values were derived by fitting the data to a four parameter logistic equation producing a sigmoidal dose-response curve with a variable Hill coefficient. Prism equation: Y=Bottom+(Top−Bottom)/(1+10^((Log IC50−X)*Hill slope)); XLfit equation: Y=(A+((B−A)/(1+((X/C)^D)))) where X is the logarithm of inhibitor concentration and Y is the response.

wild-type un-phosphorylated FGFR3 protein, sequence (P22607 23-806): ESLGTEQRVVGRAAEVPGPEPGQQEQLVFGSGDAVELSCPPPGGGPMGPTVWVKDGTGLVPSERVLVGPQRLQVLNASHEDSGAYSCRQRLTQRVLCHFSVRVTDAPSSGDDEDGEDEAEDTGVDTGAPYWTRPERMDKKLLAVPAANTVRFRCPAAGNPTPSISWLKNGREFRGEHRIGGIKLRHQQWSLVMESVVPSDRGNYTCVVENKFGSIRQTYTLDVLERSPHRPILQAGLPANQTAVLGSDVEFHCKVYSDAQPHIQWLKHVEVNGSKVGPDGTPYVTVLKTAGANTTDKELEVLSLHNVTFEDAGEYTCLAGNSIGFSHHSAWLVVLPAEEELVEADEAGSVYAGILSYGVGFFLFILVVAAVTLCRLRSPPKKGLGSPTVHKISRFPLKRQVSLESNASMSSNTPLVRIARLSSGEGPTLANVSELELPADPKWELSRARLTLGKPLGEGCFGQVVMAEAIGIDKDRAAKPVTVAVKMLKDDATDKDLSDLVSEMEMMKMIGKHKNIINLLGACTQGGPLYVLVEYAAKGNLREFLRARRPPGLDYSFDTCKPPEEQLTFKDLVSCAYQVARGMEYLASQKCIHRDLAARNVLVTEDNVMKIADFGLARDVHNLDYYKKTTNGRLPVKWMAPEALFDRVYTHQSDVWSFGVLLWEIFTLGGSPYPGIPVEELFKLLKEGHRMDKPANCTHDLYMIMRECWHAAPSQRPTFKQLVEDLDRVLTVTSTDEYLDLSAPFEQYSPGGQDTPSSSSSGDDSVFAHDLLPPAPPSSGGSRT

| IC50 [nM] | Compound |
| --- | --- |
| 0.1 to 1 | NC(=O)c1c(-c2c(Cl)cccc2Cl)nc2c3cc(-c4cnn(C5CCOCC5)c4)cnc3ccn12 [Example 24, 2-(2,6-Dichlorophenyl)-9-(1-(tetrahydro-2H-pyran-4-yl)-1H-pyrazol-4-yl)imidazo[2,1-f][1,6]naphthyridine-3-carboxamide] |
| 0.1 to 1 | NC(=O)c1c(-c2c(Cl)cccc2Cl)nc2c3cc(-c4cnn(Cc5ccccc5)c4)cnc3ccn12 [Example 25, 9-(1-Benzyl-1H-pyrazol-4-yl)-2-(2,6-dichlorophenyl)imidazo[2,1-f][1,6]naphthyridine-3-carboxamide] |
| < 0.1 | CS(=O)(=O)CCn1cc(-c2cnc3ccn4c(C(N)=O)c(-c5c(Cl)cccc5Cl)nc4c3c2)cn1 [Example 26, 2-(2,6-Dichlorophenyl)-9-(1-(2-(methylsulfonyl)ethyl)-1H-pyrazol-4-yl)imidazo[2,1-f][1,6]naphthyridine-3-carboxamide] |
| < 0.1 | CC(C#N)n1cc(-c2cnc3ccn4c(C(N)=O)c(-c5c(Cl)cccc5Cl)nc4c3c2)cn1 (centres unmarked) [Example 27, 9-(1-(1-Cyanoethyl)-1H-pyrazol-4-yl)-2-(2,6-dichlorophenyl)imidazo[2,1-f][1,6]naphthyridine-3-carboxamide] |
| < 0.1 | NC(=O)c1c(-c2c(Cl)cccc2Cl)nc2c3cc(-c4cnn(CC(F)F)c4)cnc3ccn12 [Example 28, 2-(2,6-Dichlorophenyl)-9-(1-(2,2-difluoroethyl)-1H-pyrazol-4-yl)imidazo[2,1-f][1,6]naphthyridine-3-carboxamide] |
| < 0.1 | CN1CCC(n2cc(-c3cnc4ccn5c(C(N)=O)c(-c6c(Cl)cccc6Cl)nc5c4c3)cn2)CC1 [Example 29, 2-(2,6-Dichlorophenyl)-9-(1-(1-methylpiperidin-4-yl)-1H-pyrazol-4-yl)imidazo[2,1-f][1,6]naphthyridine-3-carboxamide] |
| < 0.1 | CC(C)(CO)n1cc(-c2cnc3ccn4c(C(N)=O)c(-c5c(Cl)cccc5Cl)nc4c3c2)cn1 [Example 30, 2-(2,6-Dichlorophenyl)-9-(1-(1-hydroxy-2-methylpropan-2-yl)-1H-pyrazol-4-yl)imidazo[2,1-f][1,6]naphthyridine-3-carboxamide] |
| < 0.1 | CC(C)(C#N)n1cc(-c2cnc3ccn4c(C(N)=O)c(-c5c(Cl)cccc5Cl)nc4c3c2)cn1 [Example 31, 9-(1-(2-Cyanopropan-2-yl)-1H-pyrazol-4-yl)-2-(2,6-dichlorophenyl)imidazo[2,1-f][1,6]naphthyridine-3-carboxamide] |
| < 0.1 | NC(=O)c1c(-c2c(Cl)cccc2Cl)nc2c3cc(-c4cnn(C5CC5)c4)cnc3ccn12 [Example 32, 9-(1-Cyclopropyl-1H-pyrazol-4-yl)-2-(2,6-dichlorophenyl)imidazo[2,1-f][1,6]naphthyridine-3-carboxamide] |
| < 0.1 | NC(=O)c1c(-c2c(Cl)cccc2Cl)nc2c3cc(-c4cnn(CC(F)(F)F)c4)cnc3ccn12 [Example 33, 2-(2,6-Dichlorophenyl)-9-(1-(2,2,2-trifluoroethyl)-1H-pyrazol-4-yl)imidazo[2,1-f][1,6]naphthyridine-3-carboxamide] |
| < 0.1 | CN(C)CCn1cc(-c2cnc3ccn4c(C(N)=O)c(-c5c(Cl)cccc5Cl)nc4c3c2)cn1 [Example 34, 2-(2,6-Dichlorophenyl)-9-(1-(2-(dimethylamino)ethyl)-1H-pyrazol-4-yl)imidazo[2,1-f][1,6]naphthyridine-3-carboxamide] |
| < 0.1 | COCC(C)(C)n1cc(-c2cnc3ccn4c(C(N)=O)c(-c5c(Cl)cccc5Cl)nc4c3c2)cn1 [Example 35, 2-(2,6-Dichlorophenyl)-9-(1-(1-methoxy-2-methylpropan-2-yl)-1H-pyrazol-4-yl)imidazo[2,1-f][1,6]naphthyridine-3-carboxamide] |
| < 0.1 | CC(O)Cn1cc(-c2cnc3ccn4c(C(N)=O)c(-c5c(Cl)cccc5Cl)nc4c3c2)cn1 (centres unmarked) [Example 36, 2-(2,6-Dichlorophenyl)-9-(1-(2-hydroxypropyl)-1H-pyrazol-4-yl)imidazo[2,1-f][1,6]naphthyridine-3-carboxamide] |
| < 0.1 | CN(C)CCCn1cc(-c2cnc3ccn4c(C(N)=O)c(-c5c(Cl)cccc5Cl)nc4c3c2)cn1 [Example 37, 2-(2,6-Dichlorophenyl)-9-(1-(3-(dimethylamino)propyl)-1H-pyrazol-4-yl)imidazo[2,1-f][1,6]naphthyridine-3-carboxamide] |
| 0.1 to 1 | NC(=O)c1c(-c2c(Cl)cccc2Cl)nc2c3cc(-c4ccc(=O)[nH]c4)cnc3ccn12 [Example 39, 2-(2,6-Dichlorophenyl)-9-(6-oxo-1,6-dihydropyridin-3-yl)imidazo[2,1-f][1,6]naphthyridine-3-carboxamide] |
| 1 to 10 | CC(C)c1[nH]ncc1-c1cnc2ccn3c(C(N)=O)c(-c4c(Cl)cccc4Cl)nc3c2c1 [Example 40, 2-(2,6-Dichlorophenyl)-9-(5-isopropyl-1H-pyrazol-4-yl)imidazo[2,1-f][1,6]naphthyridine-3-carboxamide] |

| IC50 [nM] | Compound |
| --- | --- |
| 0.1 to 1 | NC(=O)c1c(-c2c(Cl)cccc2Cl)nc2c3cc(-c4cnn5c4CCC5)cnc3ccn12 [Example 41, 2-(2,6-Dichlorophenyl)-9-(5,6-dihydro-4H-pyrrolo[1,2-b]pyrazol-3-yl)imidazo[2,1-f][1,6]naphthyridine-3-carboxamide] |
| 1 to 10 | CC(C)(O)c1cncc(-c2cnc3ccn4c(C(N)=O)c(-c5c(Cl)cccc5Cl)nc4c3c2)c1 [Example 42, 2-(2,6-Dichlorophenyl)-9-(5-(2-hydroxypropan-2-yl)pyridin-3-yl)imidazo[2,1-f][1,6]naphthyridine-3-carboxamide] |
| 0.1 to 1 | CNc1ncc(-c2cnc3ccn4c(C(N)=O)c(-c5c(Cl)cccc5Cl)nc4c3c2)cn1 [Example 43, 2-(2,6-Dichlorophenyl)-9-(2-(methylamino)pyrimidin-5-yl)imidazo[2,1-f][1,6]naphthyridine-3-carboxamide] |
| < 0.1 | NC(=O)c1c(-c2c(Cl)cccc2Cl)nc2c3cc(-c4cnn(C5CCOC5)c4)cnc3ccn12 (centres unmarked) [Example 44, 2-(2,6-Dichlorophenyl)-9-(1-(tetrahydrofuran-3-yl)-1H-pyrazol-4-yl)imidazo[2,1-f][1,6]naphthyridine-3-carboxamide] |
| 0.1 to 1 | NC(=O)c1c(-c2c(Cl)cccc2Cl)nc2c3cc(-c4cnn(CCN5CCOCC5)c4)cnc3ccn12 [Example 45, 2-(2,6-Dichlorophenyl)-9-(1-(2-morpholinoethyl)-1H-pyrazol-4-yl)imidazo[2,1-f][1,6]naphthyridine-3-carboxamide] |
| 0.1 to 1 | CN1CCN(CCn2cc(-c3cnc4ccn5c(C(N)=O)c(-c6c(Cl)cccc6Cl)nc5c4c3)cn2)CC1 [Example 46, 2-(2,6-Dichlorophenyl)-9-(1-(2-(4-methylpiperazin-1-yl)ethyl)-1H-pyrazol-4-yl)imidazo[2,1-f][1,6]naphthyridine-3-carboxamide] |
| < 0.1 | NC(=O)c1c(-c2c(Cl)cccc2Cl)nc2c3cc(-c4cnn(CCCO)c4)cnc3ccn12 [Example 47, 2-(2,6-Dichlorophenyl)-9-(1-(3-hydroxypropyl)-1H-pyrazol-4-yl)imidazo[2,1-f][1,6]naphthyridine-3-carboxamide] |
| < 0.1 | N#CCCn1cc(-c2cnc3ccn4c(C(N)=O)c(-c5c(Cl)cccc5Cl)nc4c3c2)cn1 [Example 48, 9-(1-(2-Cyanoethyl)-1H-pyrazol-4-yl)-2-(2,6-dichlorophenyl)imidazo[2,1-f][1,6]naphthyridine-3-carboxamide] |
| < 0.1 | NC(=O)Cn1cc(-c2cnc3ccn4c(C(N)=O)c(-c5c(Cl)cccc5Cl)nc4c3c2)cn1 [Example 49, 9-(1-(2-Amino-2-oxoethyl)-1H-pyrazol-4-yl)-2-(2,6-dichlorophenyl)imidazo[2,1-f][1,6]naphthyridine-3-carboxamide] |
| 0.1 to 1 | CC(C)(O)c1ccc(-c2cnc3ccn4c(C(N)=O)c(-c5c(Cl)cccc5Cl)nc4c3c2)cn1 [Example 50, 2-(2,6-Dichlorophenyl)-9-(6-(2-hydroxypropan-2-yl)pyridin-3-yl)imidazo[2,1-f][1,6]naphthyridine-3-carboxamide] |
| 0.1 to 1 | NC(=O)c1c(-c2c(Cl)cccc2Cl)nc2c3cc(-c4ccc(CC(F)(F)F)nc4)cnc3ccn12 [Example 51, 2-(2,6-Dichlorophenyl)-9-(6-(2,2,2-trifluoroethyl)pyridin-3-yl)imidazo[2,1-f][1,6]naphthyridine-3-carboxamide] |
| 0.1 to 1 | CNC(=O)c1ccc(-c2cnc3ccn4c(C(N)=O)c(-c5c(Cl)cccc5Cl)nc4c3c2)cn1 [Example 52, 2-(2,6-Dichlorophenyl)-9-(6-(methylcarbamoyl)pyridin-3-yl)imidazo[2,1-f][1,6]naphthyridine-3-carboxamide] |
| < 0.1 | NC(=O)c1c(-c2c(Cl)cccc2Cl)nc2c3cc(C4=CCC(O)CC4)cnc3ccn12 (centres unmarked) [Example 53, 2-(2,6-Dichlorophenyl)-9-(4-hydroxycyclohex-1-en-1-yl)imidazo[2,1-f][1,6]naphthyridine-3-carboxamide] |
| 10 to 50 | CC(C)(O)c1cnc2ccn3c(C(N)=O)c(-c4c(Cl)cccc4Cl)nc3c2c1 [Example 55, 2-(2,6-Dichlorophenyl)-9-(2-hydroxypropan-2-yl)imidazo[2,1-f][1,6]naphthyridine-3-carboxamide] |
| 10 to 50 | Cc1nc2c3cc(-c4cnn(C5CCOCC5)c4)cnc3ccn2c1C(N)=O [Example 57, 2-Methyl-9-(1-(tetrahydro-2H-pyran-4-yl)-1H-pyrazol-4-yl)imidazo[2,1-f][1,6]naphthyridine-3-carboxamide] |
| 10 to 50 | NC(=O)c1cnc2c3cc(-c4cnn(C5CCOCC5)c4)cnc3ccn12 [Example 58, 9-(1-(Tetrahydro-2H-pyran-4-yl)-1H-pyrazol-4-yl)imidazo[2,1-f][1,6]naphthyridine-3-carboxamide] |
